Data set [1] is described as follows: Blood-brain barrier permeability by LC/MS-MS after carotid artery injection. The data set is classed as in vivo, mouse. To be noted: for concentration at 5 min: male, Casp6-expressing transgenic mice, mouse, in vivo. The protocol:
Only males were used and littermates from each genotype (wild type (WT)/WT, WT/Cre, & knock-in (KI/)Cre) were tested together. The experimenter was blind to genotype and treatment groups. Mice were administered 20 mg/kg NWL-117 or physiological saline (0.9% NaCl) by intraperitoneal injections two times 48 h apart. […] Blood brain barrier permeability of NWL-117 caspase inhibitor: Briefly, 18–22 month old Casp6 mice were anesthetised with isoflurane, warmed with a heating blanket, and their physiological vitals (heart rate, body temperature, and respiration) monitored. The skin over the mouse’s neck was shaved, xylocaine applied, and an incision was made along the midline. Under a surgical microscope, the right carotid artery was gently separated from surrounding tissue. Two suture threads were placed at the proximal and distal ends of the carotid, and a small incision was made along the carotid wall. A micro-catheter (attached to a 1 ml syringe controlled by a micropump) was inserted and pushed to the entrance of the internal carotid artery. The catheter was secured in place using suture thread. NWL-117 (20 mg/kg) was infused via the micro-catheter using a pump set at 50 μL/min (total volume between 64 μL and 130 μL). After 5 min, blood was collected by intra-cardiac puncture, the mouse was perfused through the heart with ice cold saline for 2–3 min. The brain was removed and hippocampi were dissected and frozen on dry ice and stored. Samples were sent to the Biopharmacy platform at the University of Montreal (Quebec, Canada) for liquid chromatography and tandem mass spectrometry analysis. The integrity of the blood-brain barrier was confirmed by injecting 3% Evan’s blue solution in 20 month old Casp6 mice. Mouse cognitive analysis by novel object recognition: Mice were handled during 5 min for one week prior to behavioral tests. Novel object recognition (NOR) task was administered in three phases: habituation, familiarization (pre-exposure), and test phase. For habituation, mice were placed in the NOR box (80 cm x 80 cm, Stoelting Co, Wood Dale, IL, USA) for 5 min. After 24 h, the pre-exposure phase was initiated by allowing the animals to explore two identical objects inside the NOR box. Then, following a 2 h gap, mice were re-introduced to the NOR box which now contained a familiar and a novel object. The position of the novel object was counterbalanced between animals to avoid any bias related to a preference in the location of the new object and the use of potential confounding spatial cues. The objects were located in the middle of the NW and SE quadrants of the box, equidistantly from the box corners and from each other. The mice were placed in the middle of the SW quadrant. Washing the box and objects with 70% ethanol eliminated odour cues. The number of times touching each object was manually recorded, while the total distance, percent time moving, and number of entries into virtual cells were recorded using the HVS 2100 automated video tracking system (HVS Image, Buckingham, UK). Animals whose exploration was considered insufficient to allow recognition (<10 s per object) during the familiarization phase were excluded from analysis. Different object sets were used in the pre- and post-tests. Immunohistochemistry on mouse brain slices: Following behavioural analysis, animals were anaesthetized under isoflurane and perfused intracardially with ice cold saline for 7 min and 4% paraformaldehyde for 20 min. […]

Data set [2] relates to Casp6-overexpressing KI/Cre mice. The experiment in a line: Novel object recognition task in Casp6-overexpressing KI/Cre mice. Format: in vivo, mouse. The note with it: 20 mg/kg i.p. Here is the method: Casp6 transgenic mouse model: All animal procedures followed the Canadian Council on Animal Care guidelines and were approved by the McGill Animal care committees. Sixteen to 20 month old C57BL/6 J mice were bred and aged in the pathogen-free Goodman Cancer Research Centre Mouse Transgenic Facility at McGill University. Mice were housed in a temperature-controlled room at 22 °C and were kept on a 12 h light/dark cycle. Food and water were available at libitum. Casp6 overexpressing mice (KI/Cre) express Casp6p20p10 under the CAG promoter (CMV immediate early enchancer/chicken β-actin promoter fusion) in the CA1 pyramidal cell layer of the hippocampus under the control of calmodulin kinase IIa (CAMKIIa)-regulated Cre expression.
Only males were used and littermates from each genotype (wild type (WT)/WT, WT/Cre, & knock-in (KI/)Cre) were tested together. The experimenter was blind to genotype and treatment groups. Mice were administered 20 mg/kg NWL-117 or physiological saline (0.9% NaCl) by intraperitoneal injections two times 48 h apart. […] Blood brain barrier permeability of NWL-117 caspase inhibitor: Briefly, 18–22 month old Casp6 mice were anesthetised with isoflurane, warmed with a heating blanket, and their physiological vitals (heart rate, body temperature, and respiration) monitored. The skin over the mouse’s neck was shaved, xylocaine applied, and an incision was made along the midline. Under a surgical microscope, the right carotid artery was gently separated from surrounding tissue. Two suture threads were placed at the proximal and distal ends of the carotid, and a small incision was made along the carotid wall. A micro-catheter (attached to a 1 ml syringe controlled by a micropump) was inserted and pushed to the entrance of the internal carotid artery. The catheter was secured in place using suture thread. […] The number of times touching each object was manually recorded, while the total distance, percent time moving, and number of entries into virtual cells were recorded using the HVS 2100 automated video tracking system (HVS Image, Buckingham, UK). […]

[3] abbreviates: Casp6 mice, 20 mg/kg carotid artery injection, 5 min, one value per animal, 20 mg/kg.

Where “and” joins values, the source holds several entries; their conditions need not be identical. Equal entries are not always repeated.

Turning to `CCC(C)[C@H](NC(=O)[C@H](CCC(=O)O)NC(=O)[C@@H](NC(=O)OCc1ccccc1)C(C)C)C(=O)N[C@H](/C=C/S(C)(=O)=O)CC(=O)O` (some centres unmarked) [NWL-117], in data set [1] (setting [3]), the Hippocampus concentration is 193 nM and 816 nM and 67.9 nM and 356 nM and 879 nM; the Plasma concentration is 48.521 µM and 3.416 µM and 8.998 µM and 7.408 µM and 25.425 µM; the “Ratio of [hippocampal]/[plasma]” value was 0.004 and 0.239 and 0.008 and 0.048 and 0.035. Besides, the concentration at 5 min in data set [1] is 3.4 to 48 µM. Moreover, the concentration at 5 min in data set [1] (20 mg/kg) was 0.0679 to 0.879 µM. Further, in data set [2] (two injections), the “locomotor or exploratory activities” value was “no effect”. In addition, the “NOR performance in KI/Cre mice” value in data set [2] (two injections 48 h apart) is listed as “regained normal NOR performance”. Besides, in data set [2] (two injections 48 h apart, WT/WT and WT/Cre), the “NOR performance in control mice” value was “performed equally to saline-treated mice”.
